The source made the active and inactive calls. The calls are words filed in the database; no cut-off is given here.
Assays:
[1] = target: T1, Hypoxia-inducible factor 1-alpha (Homo sapiens, UniProt Q16665); test: Inhibition of hypoxia induced HIF1-alpha transcriptional activity in human AGS cells by reporter gene assay; type: cell-based
[2] = target: T1, Hypoxia-inducible factor 1-alpha; test: Inhibition of hypoxia induced HIF1-alpha transcriptional activity in human Hep3B cells by reporter gene assay; type: cell-based; details: hep 3b2
[3] = target: T1, Hypoxia-inducible factor 1-alpha; test: Inhibition of hypoxia induced HIF1-alpha transcriptional activity in human Sk-Hep1 cells by reporter gene assay; type: cell-based
[4] = Suppression of hypoxia induced GAPDH mRNA expression in human Hep3B cells by RT-PCR; type: functional, cell-based; details: Hep 3B2
[5] = Suppression of hypoxia induced HIF1-alpha mRNA expression in human Hep3B cells by RT-PCR; type: functional, cell-based; details: Hep 3B2
[6] = Suppression of hypoxia induced EPO expression in human Hep3B cells by RT-PCR; type: functional, cell-based; details: Hep 3B2
[7] = Suppression of hypoxia induced VEGF expression in human Hep3B cells by RT-PCR; type: functional, cell-based; details: Hep 3B2

T1 sequence (Q16665 whole entry): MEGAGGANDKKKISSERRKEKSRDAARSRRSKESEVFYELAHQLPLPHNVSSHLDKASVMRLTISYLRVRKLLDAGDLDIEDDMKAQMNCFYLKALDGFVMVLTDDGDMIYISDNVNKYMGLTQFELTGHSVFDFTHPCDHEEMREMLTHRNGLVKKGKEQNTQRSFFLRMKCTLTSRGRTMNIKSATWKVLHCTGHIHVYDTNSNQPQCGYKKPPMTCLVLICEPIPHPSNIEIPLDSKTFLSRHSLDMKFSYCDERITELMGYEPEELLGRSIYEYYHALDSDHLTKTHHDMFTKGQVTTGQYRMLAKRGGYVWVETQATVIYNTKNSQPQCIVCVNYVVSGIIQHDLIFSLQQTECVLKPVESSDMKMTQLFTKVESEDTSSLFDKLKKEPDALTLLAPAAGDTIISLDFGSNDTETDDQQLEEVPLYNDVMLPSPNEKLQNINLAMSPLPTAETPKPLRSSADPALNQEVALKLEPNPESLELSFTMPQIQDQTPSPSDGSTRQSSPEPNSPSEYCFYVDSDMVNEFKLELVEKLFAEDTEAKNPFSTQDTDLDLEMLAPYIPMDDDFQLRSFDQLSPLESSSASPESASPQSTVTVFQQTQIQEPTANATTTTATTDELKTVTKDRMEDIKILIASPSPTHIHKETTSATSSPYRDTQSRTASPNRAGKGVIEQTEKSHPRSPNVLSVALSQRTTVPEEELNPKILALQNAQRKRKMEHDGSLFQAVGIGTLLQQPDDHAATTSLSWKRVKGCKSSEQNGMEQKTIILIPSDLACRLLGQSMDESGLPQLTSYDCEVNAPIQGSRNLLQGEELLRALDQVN

IC50 [1] [µM]	IC50 [2] [µM]	IC50 [3] [µM]	SMILES	Activity [4]	Activity [5]	Activity [6]	Activity [7]
2	1.2	1.03	COC(=O)c1ccnc(NC(=O)COc2ccc(C34CC5CC(CC(C5)C3)C4)cc2)c1				
5	5.9	> 30	COC(=O)c1cncc(NC(=O)COc2ccc(C34CC5CC(CC(C5)C3)C4)cc2)c1				
1.3	> 30	> 30	O=C(COc1ccc(C23CC4CC(CC(C4)C2)C3)cc1)Nc1cncc(C(=O)NCCc2ccncc2)c1				
> 30	> 30	> 30	O=C(COc1ccc(C23CC4CC(CC(C4)C2)C3)cc1)Nc1cc(C(=O)NCc2ccco2)ccn1				
30	> 30	4.1	O=C(COc1ccc(C23CC4CC(CC(C4)C2)C3)cc1)Nc1cncc(C(=O)NCc2ccco2)c1				
1.8	3.1	0.6	NC(=O)c1ccnc(NC(=O)COc2ccc(C34CC5CC(CC(C5)C3)C4)cc2)c1	inactive	inactive	Dose-dependent effect	Dose-dependent effect
> 30	> 30	> 30	O=C(COc1ccc(C23CC4CC(CC(C4)C2)C3)cc1)Nc1cncc(C(=O)O)c1				
0.8	1	2	O=C(COc1ccc(C23CC4CC(CC(C4)C2)C3)cc1)Nc1cc(C(=O)O)ccn1				
0.7	2.6		COC(=O)c1cccc(NC(=O)COc2ccc(C34CC5CC(CC(C5)C3)C4)cc2)c1				
> 10	> 10	1.9	O=C(COc1ccc(C23CC4CC(CC(C4)C2)C3)cc1)Nc1cncc(C(=O)NCCCn2ccnc2)c1				
0.35	0.4		O=C(COc1ccc(C23CC4CC(CC(C4)C2)C3)cc1)Nc1cccc(C(=O)O)c1				
18.6	> 30	2.5	O=C(COc1ccc(C23CC4CC(CC(C4)C2)C3)cc1)Nc1cc(C(=O)Nc2ccc(Cl)cc2)ccn1				
5.2	3.4	3.4	O=C(COc1ccc(C23CC4CC(CC(C4)C2)C3)cc1)Nc1cc(C(=O)NCCc2ccncc2)ccn1				
0.9	> 10	11.9	NC(=O)c1cncc(NC(=O)COc2ccc(C34CC5CC(CC(C5)C3)C4)cc2)c1				
11	11.2	0.9	O=C(COc1ccc(C23CC4CC(CC(C4)C2)C3)cc1)Nc1cc(C(=O)NCCCn2ccnc2)ccn1				
